Laboratory results: PMC8597046, “Use of Mixture Dosing and Nonlinear Mixed Effect Modeling of Eight Environmental Contaminants in Rabbits to Improve Extrapolation Value of Toxicokinetic Data” (Environmental Health Perspectives, 2021)

What was measured:
[1] = rodents; ref Staskal et al. 2005; cited from earlier work
[2] = TK assay, intravenous mixture dosing: serum concentrations and noncompartmental analysis (sparse data); conditions: female, rabbit, in vivo, iv; for Vd: IV mixture dosing, NCA, n=12
Method in brief: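 Female New Zealand white rabbits received a compound mixture IV via ear-vein catheter; serum sampled sparsely (3 rabbits/time point) from 15 min to 28 d. Noncompartmental sparse-data analysis on mean profiles: linear-trapezoidal AUC, CL as dose/AUC0−inf, half-life from λZ, MRT and VSS.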

[3] = TK assay, oral mixture dosing: serum concentrations and noncompartmental analysis (sparse data); conditions: female, rabbit, in vivo, po
Method in brief: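 Female New Zealand white rabbits (10-wk, 2.37±0.14kg) got the compound mixture IV via ear-vein catheter or orally into the mouth; serum sampled 15 min to 28 d, 3 (or 6 at 30 min) rabbits per time. Sparse-data noncompartmental analysis gave AUC (linear trapezoidal), CL or CL_F, half-life and F.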

[4] = New Zealand white (INRA 1777 line)

For `Brc1ccc(Oc2ccc(Br)cc2Br)c(Br)c1` [BDE-47, 2,2′,4,4′-tetrabromodiphenyl ether], the Intestinal absorption [1] is listed as 82%, the AUC(0-inf) [2, 4] is listed as 42.2 µM·h and the Cmax [2, 4] is listed as 1820 nM. It also gave an MRT [2, 4] of 86.9 h, a clearance [2, 4] of 3.83 mL/min/kg and a half-life [2, 4] of 162 h. For the same compound, the Vd ([2]; New Zealand white (INRA 1777 line), VSS) was 20.3 L/kg, the Vd ([2]; New Zealand white (INRA 1777 line), VZ) was 54.8 L/kg and the concentration at 24.03 h ([2]; New Zealand white, Serum concentration, rabbit 1, 24.03 h) was 120 nM. It also gave a concentration at 24 h ([2]; New Zealand white, Serum concentration, rabbit 2, […]) of 140 nM, a concentration at 24 h ([2]; New Zealand white, Serum concentration, rabbit 3, […]) of 130 nM and a concentration at 72 h ([2]; New Zealand white, Serum concentration, rabbit 4, 72.00 h) of 56 nM. For the same compound, the concentration at 72.03 h ([2]; New Zealand white, Serum concentration, rabbit 5, 72.03 h) was 63 nM, the concentration at 71.97 h ([2]; New Zealand white, Serum concentration, rabbit 6, 71.97 h) was 42 nM and the concentration at 168 h ([2]; New Zealand white, Serum concentration, rabbit 7, 168.00 h) was 31 nM. The concentration at 167.92 h ([2]; New Zealand white, Serum concentration, rabbit 8, 167.92 h) was 25 nM, the concentration at 168 h ([2]; New Zealand white, Serum concentration, rabbit 9, 168.00 h) was 37 nM and the concentration at 0.67 h ([2]; New Zealand white, Serum concentration, rabbit 10, 0.67 h) was 1990 nM. The concentration at 671.96 h ([2]; New Zealand white, Serum concentration, rabbit 10, 671.96 h) was 3.9 nM, the concentration at 0.77 h ([2]; New Zealand white, Serum concentration, rabbit 11, 0.77 h) was 1770 nM and the concentration at 672 h ([2]; New Zealand white, Serum concentration, rabbit 11, 672.00 h) was 5.3 nM. It also gave a concentration at 0.6 h ([2]; New Zealand white, Serum concentration, rabbit 12, 0.60 h) of 1820 nM, a concentration at 671.83 h ([2]; New Zealand white, Serum concentration, rabbit 12, 671.83 h) of 2.8 nM and an AUC(0-inf) [3, 4] of 79.5 µM·h. The CL/F [3, 4] was 5 mL/min/kg, the Cmax [3, 4] was 640 nM and the MRT [3, 4] was 258 h. The Tmax [3, 4] was 24 h, the Vd/F [3, 4] was 116 L/kg and the bioavailability [3, 4] was 78%. For the same compound, the half-life [3, 4] was 267 h, the concentration at 24 h ([3]; New Zealand white (INRA 1777 line), Serum concentration, oral, rabbit 13, […], MEHP after oral DEHP) was 770 nM and the concentration at 24 h ([3]; New Zealand white (INRA 1777 line), Serum concentration, oral, rabbit 14, […], MEHP after oral DEHP) was 510 nM. It also gave a concentration at 23.98 h ([3]; New Zealand white (INRA 1777 line), Serum concentration, oral, rabbit 15, 23.98 h, MEHP after oral DEHP) of 300 nM, a concentration at 168 h ([3]; New Zealand white (INRA 1777 line), Serum concentration, rabbit 21, 168.00 h) of 110 nM and a concentration at 0.57 h ([3]; New Zealand white (INRA 1777 line), Serum concentration, rabbit 22, 0.57 h) of 12 nM. It also gave a concentration at 672.02 h ([3]; New Zealand white (INRA 1777 line), Serum concentration, rabbit 22, 672.02 h) of 17 nM, a concentration at 0.55 h ([3]; New Zealand white (INRA 1777 line), Serum concentration, rabbit 23, 0.55 h) of 33 nM and a concentration at 671.96 h ([3]; New Zealand white (INRA 1777 line), Serum concentration, rabbit 23, 671.96 h) of 27 nM. It also gave a concentration at 0.55 h ([3]; New Zealand white (INRA 1777 line), Serum concentration, rabbit 24, 0.55 h) of 110 nM, a concentration at 672.02 h ([3]; New Zealand white (INRA 1777 line), Serum concentration, rabbit 24, 672.02 h) of 30 nM and a concentration at 72 h ([3]; New Zealand white, Serum concentration, oral, rabbit 16, 72.00 h, MEHP after oral DEHP) of 160 nM. The concentration at 72 h ([3]; New Zealand white, Serum concentration, oral, rabbit 17, 72.00 h, MEHP after oral DEHP) was 210 nM, the concentration at 71.96 h ([3]; New Zealand white, Serum concentration, oral, rabbit 18, 71.96 h, MEHP after oral DEHP) was 300 nM and the concentration at 168.02 h ([3]; New Zealand white, Serum concentration, rabbit 19, 168.02 h) was 92 nM. It also gave a concentration at 168 h ([3]; New Zealand white, Serum concentration, rabbit 20, 168.00 h) of 120 nM.
